Measured values published in patent publication US6355677B1, “Adrenoleukodystrophy treatments and drug screening” (The Johns Hopkins University, priority 1998, dated 2002).
Entries after “also recorded” stand apart in the source; their conditions may differ.

Assays:
[1] = test system: PMP70; assay: Semi-quantitative RT-PCR, mouse primary fibroblasts; assay type: cell-based; conditions: X-ALD or normal fibroblasts, 5 mM, 2 days
Description: (§1) Semi-quantitative RT-PCR was done on the mRNA isolated from these cells (FIG. 1). […] In addition, the expression of acyl-CoA oxidase (AOX), the rate-limiting enzyme in VLCFA β-oxidation, was not affected. Although previous studies have reported that ALDR mRNA was not detectable in fibroblasts by either northern or RT-PCR analyses, those RT-PCR studies used about 66 ng of CDNA; we used about 250 ng of cDNA.
(§2) Total RNA from tissue culture cells (10^6-10^7 cells/sample) was isolated using TRizol Reagent™ (Life Technologies), treated with DNase I (100-200 units in 40 mM HC, 10mM NaC, 6 mM MgCl2, pH 7.3), incubated at 37° C. for 30 min, extracted with pheno/chloroform, and precipitated with isopropanol. cDNA was generated using MMLV reverse transcriptase (RT) (Life Technologies). PCR was done in the linear range of amplification (determined for each primerpair-cDNA combination). For each cDNA sample, a ‘cocktail’ was prepared, containing PCR buffer (Promega), 200 µM of each DNTP, 1.5 mM MgCl2, 250 ng cDNA, 0.25 U of Taq polymerase (Promega) and […]. The ‘cocktail’ was divided into separate tubes containing cDNA specific primers.
(§3) The PCR primers used are listed below. In the parentheses, h indicates human and m, mouse; this is followed by the gene name, product size and annealing temperature. For primer sequences, F is forward and R is reverse. (hALD, 249, 64° C.) F: 5′-[…]-3′, R: 5′-[…]-3′; (mALD, 526, 59° C.) F: 5′-[…]-3′, R: 5′-[…]-3′; (hPMP70, 405, 60° C.) F: 5′-[…]-3′, R: 5′-[…]-3′; (mPMP70, 405, 60° C.) F: 5′-TTr[…]-3′, R: 5′-[…]-3′; (hALDR, 312, 56° C.) F: 5-[…]-3′, R: 5′-[…]-3′; (mALDR, 711, 57° C.) F: 5′-[…]-3′, R: 5′-[…]-3′; (hPMP69, 319, 60° C.) F: 5′-[…]-3′, R: 5-[…]-3′; (hAOX, 405, 60° C.) F: 5′-[…]-3′, R: 5′[…]-3′; (mAOX, 247, 60° C.) F: 5′-[…]r[…]-3′, R: 5′-[…]-3′; (hPPARα, 347, 60° C.) F: 5-[…]r[…]rCC-3′, R: 5′-[…]-3′; (mFPPARa, 268, 60° C.) F: 5′-GATTr[…]-TGAGG-3, R: 5′-[…]-3′; (hPex11α 658, 55° C.) F: 5-[…]-3′, R: 5′-[…]-3′; (mpex11α, 720, 55° C.) F: 5′-[…]r[…]-3′, R: 5′-[…]-3′; (β-Actin, 460, 62° C.) F:5′-[…]-3′, R: 5′-[…]-3, (glyceraldehyde 3-phosphate dehydrogenase (GAPDH), 528, 62° C.) F: 5′-[…]-3, R: 5′-[…]-3′. β-Actin and GAPDH primers were used for both human and mouse analyses.

[2] = test system: ALDP; assay: as above; assay type: cell-based; conditions: normal fibroblasts, 5 mM, 2 days
Description: as §1, §2, §3

[3] = test system: ALDR mRNA; assay: as above; assay type: cell-based; conditions: normal and X-ALD fibroblasts, 5 mM, 2 days, relative to GAPDH
Description: as §1, §2, §3

[4] = test system: acyl-CoA oxidase (AOX); assay: as above; assay type: cell-based; conditions: 5 mM, 2 days
Description: as §1, §2, §3

[5] = test system: ALDP; assay: ALDP stabilization, immunofluorescence with anti-ALDP antibody; assay type: cell-based, human; conditions: X-ALD fibroblasts with destabilizing missense mutations (A626T, R660W), 5 mM for up to 10 days
[6] = test system: human X-ALD lymphoblastoid cells; assay: VLCFA (C24:0 and C26:0) levels in cultured cells, capillary GC; assay type: cell-based
Description: Cell lines derived from X-ALD patients and X-ALD mice were grown in MEM (fibroblasts) or RPMI (lymphoblastoid cells) supplemented with fetal calf serum (10%), penicillin (100 U/ml), streptomycin (100 U/ml) and glutamine (2 mM). […] Cells in the second flask were grown without drug for the same length of time and served as controls. The media were changed every 3-4 days.
For VLCFA measurements, total lipids were extracted, converted to methyl esters, purified by TLC and subjected to capillary GC analysis as described. Duplicate assays were set up independently and were assayed on different days. C24:0 β-oxidation activity of human and mouse fibroblasts and human lymphoblastoid cells was determined by measuring their capacity to degrade [1-^14C]-C24:0 fatty acid (American Radiolabeled Chemicals, St. Louis, Mo.) to water-soluble products as described. Phytanic acid oxidation was measured as described. Cells were incubated with [2,3-^3H]-phytanic acid for 24 hours, and the release of ^3H-H2O to the aqueous medium was determined (activity in pmol/hr per mg protein).

[7] = X-ALD human lymphoblastoid cells, 5 mM, exposure 6 days
[8] = X-ALD human lymphoblastoid cells, 5 mM, exposure 10 days

O=C(O)CCCc1ccccc1 [4-PBA, 4-Phenyl butyrate]
PMP70 expression level [1]: little, if any, effect | ALDP expression level [2]: little, if any, effect | ALDR mRNA level [3]: substantially increased; also recorded: substantial increase | AOX expression [4]: unchanged; also recorded: not affected | Detectable ALDP after treatment [5]: did not result in detectable levels of ALDP | Time of treatment until C24:0 and C26:0 levels were normalized ([6]; 5 mM, human lymphoblastoid cells): ≤ 10 days | C24:0 level, Treated [6, 7]: 0.65 ± 0.17% of total fatty acids | C26:0 Percent Correction [6, 7]: 71% | C26:0 level, Treated [6, 7]: 0.11 ± 0.05% of total fatty acids | C24:0 Percent Correction [6, 8]: 161% | C24:0 level, Treated [6, 8]: 0.54 ± 0.16% of total fatty acids | C26:0 Percent Correction [6, 8]: 90% | C26:0 level, Treated [6, 8]: 0.09 ± 0.05% of total fatty acids | Effect on VLCFA levels over concentration range ([6]; between 1 mM and 5 mM, data not shown): dose-dependent decrease
